Reference: ChEMBL document CHEMBL4507274 (2021)

Assays:
[1] = tested on: Tyrosine-protein kinase ABL1 (Homo sapiens), P00519 [F317I]; settings: Compound concentration 100.0 nM
[2] = tested on: Tyrosine-protein kinase ABL1 (Homo sapiens), P00519 [F317L]; settings: Compound concentration 100.0 nM
[3] = tested on: Tyrosine-protein kinase ABL1 (Homo sapiens), P00519 [T315I]; settings: Compound concentration 100.0 nM
[4] = target: Ankyrin repeat and protein kinase domain-containing protein 1 (Homo sapiens) (UniProt Q8NFD2); settings: Compound concentration 100.0 nM
[5] = target: NUAK family SNF1-like kinase 1 (Homo sapiens) (UniProt O60285); settings: Compound concentration 100.0 nM
[6] = target: Mitogen-activated protein kinase kinase kinase 5 (Homo sapiens) (UniProt Q99683); settings: Compound concentration 100.0 nM
[7] = target: Bone morphogenetic protein receptor type-1B (Homo sapiens) (UniProt O00238); settings: Compound concentration 100.0 nM
[8] = target: Mitotic checkpoint serine/threonine-protein kinase BUB1 (Homo sapiens) (UniProt O43683); settings: Compound concentration 100.0 nM
[9] = target: Calcium/calmodulin-dependent protein kinase type 1 (Homo sapiens) (UniProt Q14012); settings: Compound concentration 100.0 nM
[10] = target: Cyclin-dependent kinase 11B (Homo sapiens) (UniProt P21127); settings: Compound concentration 100.0 nM
[11] = target: Cyclin-dependent kinase 4 (Homo sapiens) (UniProt P11802); settings: Compound concentration 100.0 nM
[12] = target: Casein kinase I isoform alpha-like (Homo sapiens) (UniProt Q8N752); settings: Compound concentration 100.0 nM
[13] = target: Death-associated protein kinase 2 (Homo sapiens) (UniProt Q9UIK4); settings: Compound concentration 100.0 nM
[14] = target: Ephrin type-A receptor 5 (Homo sapiens) (UniProt P54756); settings: Compound concentration 100.0 nM
[15] = target: Fibroblast growth factor receptor 4 (Homo sapiens) (UniProt P22455); settings: Compound concentration 100.0 nM
[16] = tested on: Receptor-type tyrosine-protein kinase FLT3 (Homo sapiens), P36888 [UNDEFINED MUTATION]; settings: Compound concentration 100.0 nM
[17] = target: Serine/threonine-protein kinase haspin (Homo sapiens) (UniProt Q8TF76); settings: Compound concentration 100.0 nM
[18] = target: Inhibitor of nuclear factor kappa-B kinase subunit epsilon (Homo sapiens) (UniProt Q14164); settings: Compound concentration 100.0 nM
[19] = target: Insulin receptor-related protein (Homo sapiens) (UniProt P14616); settings: Compound concentration 100.0 nM
[20] = target: Tyrosine-protein kinase JAK2 (Homo sapiens) (UniProt O60674); settings: Compound concentration 100.0 nM
[21] = target: Serine/threonine-protein kinase 10 (Homo sapiens) (UniProt O94804); settings: Compound concentration 100.0 nM
[22] = target: Leukocyte tyrosine kinase receptor (Homo sapiens) (UniProt P29376); settings: Compound concentration 100.0 nM
[23] = target: Mitogen-activated protein kinase kinase kinase 13 (Homo sapiens) (UniProt O43283); settings: Compound concentration 100.0 nM
[24] = target: Mitogen-activated protein kinase kinase kinase kinase 2 (Homo sapiens) (UniProt Q12851); settings: Compound concentration 100.0 nM
[25] = target: Serine/threonine-protein kinase MARK1 (Homo sapiens) (UniProt Q9P0L2); settings: Compound concentration 100.0 nM
[26] = target: Dual specificity mitogen-activated protein kinase kinase 4 (Homo sapiens) (UniProt P45985); settings: Compound concentration 100.0 nM
[27] = target: MAP kinase-interacting serine/threonine-protein kinase 2 (Homo sapiens) (UniProt Q9HBH9); settings: Compound concentration 100.0 nM
[28] = target: Serine/threonine-protein kinase mTOR (Homo sapiens) (UniProt P42345); settings: Compound concentration 100.0 nM
[29] = target: Myosin light chain kinase family member 4 (Homo sapiens) (UniProt Q86YV6); settings: Compound concentration 100.0 nM
[30] = target: Serine/threonine-protein kinase PAK 1 (Homo sapiens) (UniProt Q13153); settings: Compound concentration 100.0 nM
[31] = target: 3-phosphoinositide-dependent protein kinase 1 (Homo sapiens) (UniProt O15530); settings: Compound concentration 100.0 nM
[32] = tested on: Phosphatidylinositol 4,5-bisphosphate 3-kinase catalytic subunit alpha isoform (Homo sapiens), P42336 [C420R]; settings: Compound concentration 100.0 nM
[33] = target: cAMP-dependent protein kinase catalytic subunit beta (Homo sapiens) (UniProt P22694); settings: Compound concentration 100.0 nM
[34] = target: Protein kinase C eta type (Homo sapiens) (UniProt P24723); settings: Compound concentration 100.0 nM
[35] = target: Serine/threonine-protein kinase D3 (Homo sapiens) (UniProt O94806); settings: Compound concentration 100.0 nM
[36] = target: Serine/threonine-protein kinase PRP4 homolog (Homo sapiens) (UniProt Q13523); settings: Compound concentration 100.0 nM
[37] = tested on: Proto-oncogene tyrosine-protein kinase receptor Ret (Homo sapiens), P07949 [M918T]; settings: Compound concentration 100.0 nM
[38] = target: Serine/threonine-protein kinase SBK1 (Homo sapiens) (UniProt Q52WX2); settings: Compound concentration 100.0 nM
[39] = target: Uncharacterized serine/threonine-protein kinase SBK3 (Homo sapiens) (UniProt P0C264); settings: Compound concentration 100.0 nM
[40] = target: Tyrosine-protein kinase receptor Tie-1 (Homo sapiens) (UniProt P35590); settings: Compound concentration 100.0 nM
[41] = target: Serine/threonine-protein kinase tousled-like 2 (Homo sapiens) (UniProt Q86UE8); settings: Compound concentration 100.0 nM
[42] = target: Serine/threonine-protein kinase 32A (Homo sapiens) (UniProt Q8WU08); settings: Compound concentration 100.0 nM
[43] = target: 5-hydroxytryptamine receptor 1B (Homo sapiens) (UniProt P28222); settings: Compound concentration 10.0 uM
[44] = target: 5-hydroxytryptamine receptor 6 (Homo sapiens) (UniProt P50406); settings: Compound concentration 10.0 uM
[45] = target: D(1B) dopamine receptor (Homo sapiens) (UniProt P21918); settings: Compound concentration 10.0 uM

Ephrin type-A receptor 5 (Homo sapiens), sequence (P54756 whole entry): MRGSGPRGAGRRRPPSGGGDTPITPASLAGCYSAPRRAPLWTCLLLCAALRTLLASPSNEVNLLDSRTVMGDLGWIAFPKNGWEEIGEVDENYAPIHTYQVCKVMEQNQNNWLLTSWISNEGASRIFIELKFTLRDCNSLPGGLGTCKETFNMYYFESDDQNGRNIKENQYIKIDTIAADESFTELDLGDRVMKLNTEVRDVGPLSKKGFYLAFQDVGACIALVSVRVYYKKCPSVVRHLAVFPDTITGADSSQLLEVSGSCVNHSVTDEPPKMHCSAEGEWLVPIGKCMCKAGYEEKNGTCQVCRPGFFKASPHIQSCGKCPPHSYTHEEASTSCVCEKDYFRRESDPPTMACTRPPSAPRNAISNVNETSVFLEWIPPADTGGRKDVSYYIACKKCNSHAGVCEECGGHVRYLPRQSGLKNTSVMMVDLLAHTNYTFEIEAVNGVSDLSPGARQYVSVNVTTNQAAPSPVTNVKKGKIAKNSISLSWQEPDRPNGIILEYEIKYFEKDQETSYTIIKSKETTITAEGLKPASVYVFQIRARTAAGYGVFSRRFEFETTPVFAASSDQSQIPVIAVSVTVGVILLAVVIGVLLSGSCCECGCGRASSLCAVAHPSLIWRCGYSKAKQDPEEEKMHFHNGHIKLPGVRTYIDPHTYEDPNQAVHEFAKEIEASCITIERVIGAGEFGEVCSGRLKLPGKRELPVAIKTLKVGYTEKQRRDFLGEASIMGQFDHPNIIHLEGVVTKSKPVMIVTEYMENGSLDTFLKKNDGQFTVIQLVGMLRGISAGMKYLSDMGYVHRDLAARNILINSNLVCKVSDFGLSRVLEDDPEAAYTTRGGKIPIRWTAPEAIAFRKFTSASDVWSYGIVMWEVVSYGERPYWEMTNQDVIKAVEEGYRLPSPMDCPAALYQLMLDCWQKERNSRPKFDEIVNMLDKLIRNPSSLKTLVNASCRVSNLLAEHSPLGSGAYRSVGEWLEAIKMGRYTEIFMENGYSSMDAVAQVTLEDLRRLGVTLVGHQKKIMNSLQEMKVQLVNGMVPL
Casein kinase I isoform alpha-like (Homo sapiens), sequence (Q8N752 whole entry, canonical isoform): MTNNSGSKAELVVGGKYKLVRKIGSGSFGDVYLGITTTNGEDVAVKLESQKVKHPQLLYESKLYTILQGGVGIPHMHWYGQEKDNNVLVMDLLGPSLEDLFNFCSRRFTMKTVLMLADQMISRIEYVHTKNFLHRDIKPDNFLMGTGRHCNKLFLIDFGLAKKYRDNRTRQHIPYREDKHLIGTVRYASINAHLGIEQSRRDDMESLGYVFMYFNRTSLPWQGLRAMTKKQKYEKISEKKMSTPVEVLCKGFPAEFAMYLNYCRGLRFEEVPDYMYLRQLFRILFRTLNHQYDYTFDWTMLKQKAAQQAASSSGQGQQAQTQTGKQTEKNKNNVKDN
Insulin receptor-related protein (Homo sapiens), sequence (P14616 27-742 limits assumed): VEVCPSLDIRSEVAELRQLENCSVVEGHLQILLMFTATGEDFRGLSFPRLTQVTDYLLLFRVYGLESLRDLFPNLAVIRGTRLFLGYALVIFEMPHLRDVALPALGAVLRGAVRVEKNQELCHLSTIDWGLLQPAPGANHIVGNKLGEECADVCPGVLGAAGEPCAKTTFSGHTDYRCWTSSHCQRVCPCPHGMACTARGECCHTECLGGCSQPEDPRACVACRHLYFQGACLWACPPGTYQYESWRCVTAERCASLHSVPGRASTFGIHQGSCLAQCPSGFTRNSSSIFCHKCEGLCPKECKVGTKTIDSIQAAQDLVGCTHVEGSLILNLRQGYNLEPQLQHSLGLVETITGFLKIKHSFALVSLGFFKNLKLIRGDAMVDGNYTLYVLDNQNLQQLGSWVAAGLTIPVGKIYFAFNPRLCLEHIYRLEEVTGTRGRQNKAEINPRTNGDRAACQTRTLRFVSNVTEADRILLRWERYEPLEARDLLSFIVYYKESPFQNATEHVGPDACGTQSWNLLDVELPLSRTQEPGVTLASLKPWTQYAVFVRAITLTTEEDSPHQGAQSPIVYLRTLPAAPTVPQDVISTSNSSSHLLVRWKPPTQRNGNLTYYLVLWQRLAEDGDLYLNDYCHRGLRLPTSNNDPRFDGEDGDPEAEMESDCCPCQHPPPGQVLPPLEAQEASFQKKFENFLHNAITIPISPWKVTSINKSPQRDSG
Insulin receptor-related protein (Homo sapiens), sequence (P14616 747-1297 limits assumed): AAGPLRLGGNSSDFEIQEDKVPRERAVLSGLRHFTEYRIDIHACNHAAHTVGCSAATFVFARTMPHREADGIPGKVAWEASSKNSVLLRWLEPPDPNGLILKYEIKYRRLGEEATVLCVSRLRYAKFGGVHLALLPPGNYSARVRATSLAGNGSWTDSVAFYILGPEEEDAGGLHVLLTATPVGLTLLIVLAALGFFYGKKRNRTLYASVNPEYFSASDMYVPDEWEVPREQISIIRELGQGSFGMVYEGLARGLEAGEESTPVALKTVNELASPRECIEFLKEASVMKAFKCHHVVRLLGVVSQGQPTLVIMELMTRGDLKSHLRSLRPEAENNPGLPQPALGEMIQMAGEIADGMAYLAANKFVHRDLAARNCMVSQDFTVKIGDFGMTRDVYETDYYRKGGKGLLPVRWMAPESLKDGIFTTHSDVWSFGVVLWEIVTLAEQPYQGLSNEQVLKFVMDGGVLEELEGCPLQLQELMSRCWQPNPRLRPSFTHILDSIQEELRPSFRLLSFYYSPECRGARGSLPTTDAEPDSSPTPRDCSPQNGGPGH
Mitotic checkpoint serine/threonine-protein kinase BUB1 (Homo sapiens), sequence (O43683 whole entry, looked up): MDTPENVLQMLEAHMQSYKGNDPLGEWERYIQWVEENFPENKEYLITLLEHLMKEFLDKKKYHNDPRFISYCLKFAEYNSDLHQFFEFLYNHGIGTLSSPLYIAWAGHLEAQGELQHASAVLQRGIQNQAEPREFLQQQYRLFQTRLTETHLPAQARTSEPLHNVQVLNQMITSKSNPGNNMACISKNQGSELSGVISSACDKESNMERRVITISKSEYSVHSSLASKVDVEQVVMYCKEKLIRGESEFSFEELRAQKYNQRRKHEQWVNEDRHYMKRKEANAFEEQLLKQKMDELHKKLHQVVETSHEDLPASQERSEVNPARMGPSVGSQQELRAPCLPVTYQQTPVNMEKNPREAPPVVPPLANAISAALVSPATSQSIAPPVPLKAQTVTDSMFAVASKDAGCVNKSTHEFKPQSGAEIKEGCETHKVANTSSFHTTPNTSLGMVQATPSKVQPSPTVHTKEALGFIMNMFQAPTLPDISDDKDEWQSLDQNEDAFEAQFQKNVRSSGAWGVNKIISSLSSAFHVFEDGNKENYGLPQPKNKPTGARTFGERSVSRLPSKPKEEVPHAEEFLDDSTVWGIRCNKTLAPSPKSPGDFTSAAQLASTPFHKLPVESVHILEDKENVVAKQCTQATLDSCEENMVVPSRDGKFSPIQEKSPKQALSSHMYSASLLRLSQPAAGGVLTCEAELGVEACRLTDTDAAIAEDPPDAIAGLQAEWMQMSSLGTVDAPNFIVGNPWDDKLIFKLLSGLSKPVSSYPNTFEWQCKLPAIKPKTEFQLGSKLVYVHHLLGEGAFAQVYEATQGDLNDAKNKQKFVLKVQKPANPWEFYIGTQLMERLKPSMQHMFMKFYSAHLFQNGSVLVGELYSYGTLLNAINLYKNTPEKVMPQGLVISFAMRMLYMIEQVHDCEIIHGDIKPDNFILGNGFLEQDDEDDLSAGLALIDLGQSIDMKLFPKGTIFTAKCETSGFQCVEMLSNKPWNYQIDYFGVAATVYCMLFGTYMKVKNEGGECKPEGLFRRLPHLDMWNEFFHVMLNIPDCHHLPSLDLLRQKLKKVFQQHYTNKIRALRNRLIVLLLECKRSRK
Fibroblast growth factor receptor 4 (Homo sapiens), sequence (P22455 22-802 limits assumed): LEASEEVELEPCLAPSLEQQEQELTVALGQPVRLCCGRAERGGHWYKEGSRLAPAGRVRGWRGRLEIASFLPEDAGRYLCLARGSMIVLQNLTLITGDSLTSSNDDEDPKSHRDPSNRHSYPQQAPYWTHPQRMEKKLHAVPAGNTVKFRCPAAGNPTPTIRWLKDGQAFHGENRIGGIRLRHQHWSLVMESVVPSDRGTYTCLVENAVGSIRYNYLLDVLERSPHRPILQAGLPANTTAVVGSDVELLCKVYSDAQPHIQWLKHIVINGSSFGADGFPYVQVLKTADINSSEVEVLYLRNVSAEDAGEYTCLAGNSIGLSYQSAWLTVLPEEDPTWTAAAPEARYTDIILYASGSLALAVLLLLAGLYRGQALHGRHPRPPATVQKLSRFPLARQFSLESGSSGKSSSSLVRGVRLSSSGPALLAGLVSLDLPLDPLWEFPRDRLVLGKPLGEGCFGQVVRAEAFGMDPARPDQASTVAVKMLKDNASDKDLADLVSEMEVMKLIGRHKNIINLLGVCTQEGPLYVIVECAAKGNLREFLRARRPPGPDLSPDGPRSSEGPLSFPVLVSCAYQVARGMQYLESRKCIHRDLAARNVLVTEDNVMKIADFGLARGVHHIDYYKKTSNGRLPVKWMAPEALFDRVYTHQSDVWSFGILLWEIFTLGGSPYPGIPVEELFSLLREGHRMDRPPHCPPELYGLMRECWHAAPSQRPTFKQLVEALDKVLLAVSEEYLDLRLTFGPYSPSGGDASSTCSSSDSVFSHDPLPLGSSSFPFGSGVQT
Myosin light chain kinase family member 4 (Homo sapiens), sequence (Q86YV6 whole entry): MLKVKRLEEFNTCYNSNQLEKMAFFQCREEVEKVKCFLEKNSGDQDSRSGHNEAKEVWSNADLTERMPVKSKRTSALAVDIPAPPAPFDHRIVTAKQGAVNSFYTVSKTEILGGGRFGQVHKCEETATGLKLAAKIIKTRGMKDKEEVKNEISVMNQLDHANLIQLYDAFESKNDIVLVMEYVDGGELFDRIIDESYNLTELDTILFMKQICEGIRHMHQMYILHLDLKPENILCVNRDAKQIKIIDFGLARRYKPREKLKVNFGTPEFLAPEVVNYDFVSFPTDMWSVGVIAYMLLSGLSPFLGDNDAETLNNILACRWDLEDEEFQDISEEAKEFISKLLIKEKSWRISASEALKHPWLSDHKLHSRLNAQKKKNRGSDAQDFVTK

Cc1c[nH]c2nccc(Oc3c(F)cc(Nc4cc(Cl)nc(N)n4)cc3F)c12 [BAY-549]
residual activity [1]: 55%
residual activity [2]: 84%
residual activity [3]: 84%
residual activity [4]: 85%
residual activity [5]: 91%
residual activity [6]: 98%
residual activity [7]: 68%
residual activity [8]: 75%
residual activity [9]: 92%
residual activity [10]: 80%
residual activity [11]: 100%
residual activity [12]: 89%
residual activity [13]: 89%
residual activity [14]: 92%
residual activity [15]: 100%
residual activity [16]: 97%
residual activity [17]: 61%
residual activity [18]: 93%
residual activity [19]: 91%
residual activity [20]: 75%
residual activity [21]: 100%
residual activity [22]: 99%
residual activity [23]: 81%
residual activity [24]: 69%
residual activity [25]: 82%
residual activity [26]: 99%
residual activity [27]: 90%
residual activity [28]: 85%
residual activity [29]: 100%
residual activity [30]: 100%
residual activity [31]: 100%
residual activity [32]: 89%
residual activity [33]: 36%
residual activity [34]: 74%
residual activity [35]: 100%
residual activity [36]: 89%
residual activity [37]: 100%
residual activity [38]: 94%
residual activity [39]: 87%
residual activity [40]: 94%
residual activity [41]: 95%
residual activity [42]: 86%
inhibition [43]: -5.28%
inhibition [44]: -1.5%
inhibition [45]: 21.9%

Cn1cc(Cl)c2c(Oc3c(F)cc(Nc4cc(Cl)nc(N)n4)cc3F)ccnc21 [BAY-4900]
residual activity [1]: 89%
residual activity [2]: 94%
residual activity [3]: 86%
residual activity [4]: 83%
residual activity [5]: 96%
residual activity [6]: 97%
residual activity [7]: 86%
residual activity [8]: 82%
residual activity [9]: 100%
residual activity [10]: 100%
residual activity [11]: 100%
residual activity [12]: 98%
residual activity [13]: 100%
residual activity [14]: 100%
residual activity [15]: 86%
residual activity [16]: 100%
residual activity [17]: 74%
residual activity [18]: 100%
residual activity [19]: 100%
residual activity [20]: 72%
residual activity [21]: 100%
residual activity [22]: 87%
residual activity [23]: 99%
residual activity [24]: 81%
residual activity [25]: 100%
residual activity [26]: 80%
residual activity [27]: 90%
residual activity [28]: 85%
residual activity [29]: 91%
residual activity [30]: 100%
residual activity [31]: 61%
residual activity [32]: 82%
residual activity [33]: 92%
residual activity [34]: 98%
residual activity [35]: 100%
residual activity [36]: 81%
residual activity [37]: 92%
residual activity [38]: 97%
residual activity [39]: 65%
residual activity [40]: 100%
residual activity [41]: 100%
residual activity [42]: 89%
inhibition [43]: 5.3%
inhibition [44]: -1.64%
inhibition [45]: 9.8%
